Measured values as given in patent US20040044006A1, “Methods of use of quinolone compounds against pneumococcal and haemophilus bacteria” (priority 1999, published 2004).
In brackets after ≈: the same amount, converted by molar mass. Where two headings read alike, the source gives them in different places.

Key:
[1] = test system: pneumococci with ciprofloxacin MICs ≧8 μg/ml; assay: Quinolone agar dilution MICs of 28 ciprofloxacin resistant pneumococcal strains, correlated with QRDR mutations; type: cell-based, Streptococcus pneumoniae
Description: Additionally these strains were tested for mutations in parC, gyrA, parE, and gyrB (Pan, et al. Antimicrob. Agents Chemother. 40:2321-2326, 1996) and for efflux mechanism (Brenwald, et ail., Antimicrob. Agents Chemother. 42:2032-2035, 1998).
Gemifloxacin susceptibility powder was obtained from SmithKline Beecham Laboratories, Harlow, UK. Agar dilution methodology was performed on 28 strains as described previously (M. R. Jacobs, Clin. Infect. Dis. 15: 119-127, […] and M. R. Jacobs, Rev. Med. Microbiol. 6:77-93, 1995), using Mueller-Hinton altar (BBL Microbiology Systems, Cockeysville, Md.) supplemented with 5% sheep blood. Standard quality control strains, including Streptococcus pneumoniae ATCC 49619, were included in each run of agar dilution MICs.

[2] = test system: quinolone resistant pneumococci; assay: Determination of efflux mechanism: MICs in the presence and absence of reserpine; type: cell-based, Streptococcus pneumoniae
Description: MICs were determined in the presence and absence of 10 μg/ml of reserpine (Sigma Chemicals, St. Louis, Mo.) as known in the art.
MICs were determined in the presence and absence of […] of reserpine (Sigma Chemicals, St. Louis, Mo., USA) as described previously (Brenwald, et al., Antimicrob. Agents Chemother. 42:2039-2035, 1998 and Davies, et al., Antimicrob. Agents Chemother. 43:1177-1182S, 1999).

[3] = test system: pneumococcal strains; assay: Microbroth dilution MICs of strains tested by time-kill and PAE; type: cell-based; details: Streptococcus pneumoniae, read-out: Microdilution MIC
Procedure, shortened: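 Broth MICs per NCCLS in cation-adjusted Mueller-Hinton broth with 5% lysed defibrinated horse blood. Used for 12 time-kill and 6 PAE strains. S. pneumoniae ATCC 49619 run as quality control.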

[4] = test system: pneumococci (5 quinolone susceptible and 1 resistant strains); assay: Post-antibiotic effect (PAE) testing; type: cell-based, Streptococcus pneumoniae
Procedure, shortened: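 Pneumococci (~5×10^6 cfu/ml) in MHB with 5% lysed horse blood were exposed 1 h at 35 °C, the quinolone-resistant strain at 5×MIC, then diluted 1:1000. Viable counts every 2 h until McFarland #1 turbidity. PAE = T − C, the 1 log10 regrowth time versus untreated control; mean of two assays ±SD.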

[5] = agar dilution, 28 strains with ciprofloxacin MICs ≧8.0 μg/ml

## Cc1c(F)c(N2CCNC(C)C2)cc2c1c(=O)c(C(=O)O)cn2C1CC1 (centres unmarked) [Grepafloxacin, grepafloxacin]
[1]; Streptococcus pneumoniae
  MIC50: 4 µg/mL (≈ 11.1 µM)
  MIC90: 8 µg/mL (≈ 22.3 µM)
[1]; Streptococcus pneumoniae, read-out: MICs in strains with three or four QRDR mutations, 20 strains, bound holds in all 20 (ciprofloxacin, levofloxacin, sparfloxacin), 19 (grepafloxacin), 10 (trovafloxacin), 18 (gemifloxacin)
  MIC: > 1 µg/mL
[1]; Streptococcus pneumoniae, read-out: MICs in strains with three or four QRDR mutations, 21 strains, bound holds in all 21 (ciprofloxacin, levofloxacin, sparfloxacin), 20 (grepafloxacin), 11 (trovafloxacin), 19 (gemifloxacin)
  MIC: ≥ 1 µg/mL
[1]; Streptococcus pneumoniae, strain 1, ParC S79-F, ParE I460-V, GyrA S81-F, GyrB None
  MIC: 4 µg/mL (≈ 11.1 µM)
[1]; Streptococcus pneumoniae, strain 1, ParC S79-F, ParE I460-V, GyrA S83-F, GyrB None
  MIC: 4 µg/mL (≈ 11.1 µM)
[1]; Streptococcus pneumoniae, strain 2, ParC S79-Y, ParE I460-V, GyrA None, GyrB None
  MIC: 0.5 µg/mL (≈ 1.39 µM)
[1]; Streptococcus pneumoniae, strain 3, ParC D83-N, ParE I460-V, GyrA S81-F, GyrB None
  MIC: 0.5 µg/mL (≈ 1.39 µM)
[1]; Streptococcus pneumoniae, strain 3, ParC D83-N, ParE I460-V, GyrA S83-F, GyrB None
  MIC: 0.5 µg/mL (≈ 1.39 µM)
[1]; Streptococcus pneumoniae, strain 4, ParC S79-F, ParE I460-V, GyrA S81-F, GyrB None
  MIC: 1 µg/mL (≈ 2.78 µM)
[1]; Streptococcus pneumoniae, strain 4, ParC S79-F, ParE I460-V, GyrA S83-F, GyrB None
  MIC: 1 µg/mL (≈ 2.78 µM)
[1]; Streptococcus pneumoniae, strain 5, ParC R95-C, ParE D435-N, GyrA S81-F, GyrB None
  MIC: 1 µg/mL (≈ 2.78 µM)
[1]; Streptococcus pneumoniae, strain 5, ParC R95-C, ParE D435-N, GyrA S83-F, GyrB None
  MIC: 1 µg/mL (≈ 2.78 µM)
[1]; Streptococcus pneumoniae, strain 6, ParC S79-Y, ParE I460-V, GyrA E85-K, GyrB None
  MIC: 2 µg/mL (≈ 5.56 µM)
[1]; Streptococcus pneumoniae, strain 6, ParC S79-Y, ParE I460-V, GyrA E87-K, GyrB None
  MIC: 2 µg/mL (≈ 5.56 µM)
[1]; Streptococcus pneumoniae, strain 7, ParC None, ParE I460-V, GyrA None, GyrB None
  MIC: 1 µg/mL (≈ 2.78 µM)
[1]; Streptococcus pneumoniae, strain 8, ParC S79-Y, ParE None, GyrA None, GyrB None
  MIC: 1 µg/mL (≈ 2.78 µM)
[1]; Streptococcus pneumoniae, strain 9, ParC S79-Y, ParE None, GyrA None, GyrB None
  MIC: 1 µg/mL (≈ 2.78 µM)
[1]; Streptococcus pneumoniae, strain 10, ParC S79-F, ParE I460-V, GyrA S81-C, GyrB None
  MIC: 2 µg/mL (≈ 5.56 µM)
[1]; Streptococcus pneumoniae, strain 10, ParC S79-F, ParE I460-V, GyrA S83-C, GyrB None
  MIC: 2 µg/mL (≈ 5.56 µM)
[1]; Streptococcus pneumoniae, strain 11, ParC S79-F, ParE I460-V, GyrA S81-F, GyrB None
  MIC: 4 µg/mL (≈ 11.1 µM)
[1]; Streptococcus pneumoniae, strain 11, ParC S79-F, ParE I460-V, GyrA S83-F, GyrB None
  MIC: 4 µg/mL (≈ 11.1 µM)
[1]; Streptococcus pneumoniae, strain 12, ParC S79-F, ParE I460-V, GyrA None, GyrB D435-N
  MIC: 4 µg/mL (≈ 11.1 µM)
[1]; Streptococcus pneumoniae, strain 13, ParC S79-F, ParE I460-V, GyrA None, GyrB E474-K
  MIC: 2 µg/mL (≈ 5.56 µM)
[1]; Streptococcus pneumoniae, strain 14, ParC S79-F, ParE I460-V, GyrA S81-F, GyrB None
  MIC: 4 µg/mL (≈ 11.1 µM)
[1]; Streptococcus pneumoniae, strain 14, ParC S79-F, ParE I460-V, GyrA S83-F, GyrB None
  MIC: 4 µg/mL (≈ 11.1 µM)
[1]; Streptococcus pneumoniae, strain 15, ParC 79-F, ParE I460-V, GyrA S83-F, GyrB None
  MIC: 4 µg/mL (≈ 11.1 µM)
[1]; Streptococcus pneumoniae, strain 15, ParC S79-F, ParE I460-V, GyrA S81-F, GyrB None
  MIC: 4 µg/mL (≈ 11.1 µM)
[1]; Streptococcus pneumoniae, strain 16, ParC S79-F, ParE I460-V, GyrA S81-F, GyrB None
  MIC: 4 µg/mL (≈ 11.1 µM)
[1]; Streptococcus pneumoniae, strain 16, ParC S79-F, ParE I460-V, GyrA S83-F, GyrB None
  MIC: 4 µg/mL (≈ 11.1 µM)
[1]; Streptococcus pneumoniae, strain 17, ParC D83-N, ParE None, GyrA S81-F, GyrB None
  MIC: 4 µg/mL (≈ 11.1 µM)
[1]; Streptococcus pneumoniae, strain 17, ParC D83-N, ParE None, GyrA S83-F, GyrB None
  MIC: 4 µg/mL (≈ 11.1 µM)
[1]; Streptococcus pneumoniae, strain 18, ParC S79-F, ParE I460-V, GyrA S81-F, GyrB None
  MIC: 4 µg/mL (≈ 11.1 µM)
[1]; Streptococcus pneumoniae, strain 18, ParC S79-F, ParE I460-V, GyrA S83-F, GyrB None
  MIC: 4 µg/mL (≈ 11.1 µM)
[1]; Streptococcus pneumoniae, strain 19, ParC S79-F, ParE I460-V, GyrA S81-F, GyrB None
  MIC: 4 µg/mL (≈ 11.1 µM)
[1]; Streptococcus pneumoniae, strain 19, ParC S79-F, ParE I460-V, GyrA S83-F, GyrB None
  MIC: 4 µg/mL (≈ 11.1 µM)
[1]; Streptococcus pneumoniae, strain 20, ParC S79-F, ParE I460-V, GyrA E85-K, GyrB None
  MIC: 4 µg/mL (≈ 11.1 µM)
[1]; Streptococcus pneumoniae, strain 20, ParC S79-F, ParE I460-V, GyrA E87-K, GyrB None
  MIC: 4 µg/mL (≈ 11.1 µM)
[1]; Streptococcus pneumoniae, strain 21, ParC S79-F, ParE I460-V, GyrA S81-F, GyrB None
  MIC: 4 µg/mL (≈ 11.1 µM)
[1]; Streptococcus pneumoniae, strain 21, ParC S79-F, ParE I460-V, GyrA S83-F, GyrB None
  MIC: 4 µg/mL (≈ 11.1 µM)
[1]; Streptococcus pneumoniae, strain 22, ParC S79-F, ParE I460-V, GyrA S81-Y, GyrB None
  MIC: 4 µg/mL (≈ 11.1 µM)
[1]; Streptococcus pneumoniae, strain 22, ParC S79-F, ParE I460-V, GyrA S83-Y, GyrB None
  MIC: 4 µg/mL (≈ 11.1 µM)
[1]; [5]
  MIC50: 4.0 µg/mL (≈ 11.1 µM)
  MIC90: 8.0 µg/mL (≈ 22.3 µM)
  MIC Range: 0.5 to 16.0 µg/mL
[1]; agar dilution, 28 strains with ciprofloxacin MICs ≧8.0 μg/ml, listed as grepafloxacin
  MIC Range: 0.5 to 16 µg/mL
[2]; 28 quinolone resistant strains, 10 μg/ml reserpine
  lower MICs in the presence of reserpine, fold range over affected strains: 2 ×
[2]; of 28 quinolone resistant strains, 10 μg/ml reserpine
  number of strains with lower MICs in the presence of reserpine: 3 strains
[2]; strain 5
  Number of dilutions decrease after incubation with reserpine: 2X
[2]; strain 5, 10 μg/ml reserpine
  lower MIC in the presence of reserpine (efflux mechanism): 2X
[2]; strain 12
  Number of dilutions decrease after incubation with reserpine: 2X
[2]; strain 12, 10 μg/ml reserpine
  lower MIC in the presence of reserpine (efflux mechanism): 2X
[2]; strain 28
  Number of dilutions decrease after incubation with reserpine: 2X
[2]; strain 28, 10 μg/ml reserpine
  lower MIC in the presence of reserpine (efflux mechanism): 2X
[3]; strain 1 (S) penicillin susceptible
  MIC: 0.06 µg/mL (≈ 0.167 µM)
[3]; strain 2 (S) penicillin susceptible
  MIC: 0.06 µg/mL (≈ 0.167 µM)
[3]; strain 3 (S) penicillin susceptible, quinolone-resistant
  MIC: 16 µg/mL (≈ 44.5 µM)
[3]; strain 4 (S) penicillin susceptible, quinolone-resistant
  MIC: 8 µg/mL (≈ 22.3 µM)
[3]; strain 5 (I) penicillin intermediate
  MIC: 0.125 µg/mL (≈ 0.348 µM)
[3]; strain 6 (I) penicillin intermediate
  MIC: 0.125 µg/mL (≈ 0.348 µM)
[3]; strain 7 (I) penicillin intermediate
  MIC: 0.125 µg/mL (≈ 0.348 µM)
[3]; strain 8 (I) penicillin intermediate
  MIC: 0.125 µg/mL (≈ 0.348 µM)
[3]; strain 9 (R) penicillin resistant
  MIC: 0.25 µg/mL (≈ 0.696 µM)
[3]; strain 10 (I)
  MIC: 0.125 µg/mL (≈ 0.348 µM)
[3]; strain 11 (R) penicillin resistant
  MIC: 0.125 µg/mL (≈ 0.348 µM)
[3]; strain 12 (R) penicillin resistant
  MIC: 0.25 µg/mL (≈ 0.696 µM)
[4]; 5×MIC, quinolone resistant strain
  PAE: 1.5 h
[4]; 10×MIC for 1 h, range over 5 quinolone susceptible strains
  PAE: 0.3 to 2.6 h
